Values after ≈ are worked out from the molar mass of the structure shown. Where two headings read alike, the source gives them in different places. Each block holds one molecule with its values, some of them ahead of it.
Experiments:
Borreliella spp. = assay: MIC by broth microdilution against Borreliella isolates; assay type: cell-based; details: range over 6 isolates (5 B. burgdorferi, 1 B. garinii)
Procedure: Minimal inhibitory concentrations (MIC) were determined against five (n=5) Borreliella burgdorferi isolates (ATCC 51990, 55131, 35211, 35210, 53899) and one (n=1) Borreliella garinii isolate (ATCC 51991) by broth microdilution technique (Dever, L. L., Jorgensen, J. H., Barbour, A. G. In vitro antimicrobial susceptibility testing of Boreliella burgdorferi: a microdilution MIC method and time-kill studies. J Clin Microbiol. 30(10), 2692-2697. (1992) doi: 10.1128/jcm.30.10.2692-2697.1992; Feng, J., Wang, T., Shi, W., et al. Identification of novel activity against Boreliella burgdorferi persisters using an FDA approved drug library. Emerg Microb Infect 3, e49 (2014) doi: 10.1038/emi.2014.53). The general procedures for broth microdilution were done according to the CLSI guidelines M7 and M100-S31 (CLSI. (2018) Methods for dilution antimicrobial susceptibility tests for bacteria that grow aerobically; Eleventh edition. M07.; CLSI. (2021) Performance Standards for Antimicrobial Susceptibility Testing; Thirty-first Edition. M100-S31).
Briefly, Borreliella spp. were grown at 36° C. under microaerophilic conditions in BSK II medium until the logarithmic or stationary growth phase was reached. The growth phase was determined by semiquantitative measurement of active and dormant cells by fluorescence microscopy of cells stained with the fluorescent dyes SYBR Green I and propidium iodide. An inoculum of 10^5−10^6 spirochetes/mL was used to inoculate broth microdilution plates containing serially 2-fold diluted test compounds.

[1] = test system: T. pallidum Chicago strain; assay: In vitro susceptibility in co-culture with rabbit Sf1Ep cells, qPCR of tp0574 gene; assay type: cell-based, Treponema pallidum
Procedure: (§1) The in vitro susceptibility determination essentially followed the protocol described by Edmondson et al. (Edmondson, D. G., Hu, B., Norris, S. J. Long-Term In Vitro Culture of the Syphilis Spirochete Treponema pallidum subsp. pallidum. mBio 9(3) e01153-18. (2018). doi: 10.1128/mBio.01153-18).
(§2) Briefly, 3×10^3 rabbit Sf1Ep cells seeded in 96-well microtiter plates in 150 μl of culture media, were inoculated with the T. pallidum strains Chicago and SS14 at an inoculum of 3×10^3 (counted using dark field microscopy) in TpCM-2 medium that was equilibrated overnight at 34° C. in a microaerophilic environment consisting of 1.5% O2, 3.5% CO2 and 95% N2 supplied as a tri-gas mix. Lefamulin and penicillin G were added from 100-fold concentrated stocks in water to achieve the final test concentrations of 5, 2.5, 0.5, 0.1, 0.02. 0.01. 0.005, and 0.0025 μg/ml for Lefamulin and 60 ng/ml for penicillin G. Then the culture plates were incubated at 34° C. in a tri-gas incubator. Cells were then lysed and the DNA extracted using a Quick DNA-96 kit followed by the quantification of the treponemes by quantitative real-time PCR in triplicate targeting the tp0574 gene (Giacani L, Molini B, Godornes C, Barrett L, Van Voorhis WC, Centurion-Lara A, et al. Quantitative analysis of tpr gene expression in Treponema pallidum isolates: differences among isolates and correlation with T-cell responsiveness in experimental syphilis. Infect Immun. 75(1), 104-12 (2007). doi: 10.1128/IAI.01124-06).

T. pallidum SS14 strain = assay: as above; assay type: cell-based, Treponema pallidum
Procedure: as §1, §2

[2] = test system: T. pallidum cells (Chicago strain); assay: Rabbit model of intradermal Treponema pallidum infection (syphilis); assay type: in vivo
Procedure: The preclinical study to test Lefamulin against T. pallidum was conducted in analogy to an investigation of the antibiotic compound linezolid (Haynes, A. M., Giacani, L., Vall Mayans, M., et al. Efficacy of linezolid on Treponema pallidum, the syphilis agent: A preclinical study. eBioMedicine 65, 103281 (2021). doi: 10.1016/j.ebiom.2021.103281).
In the syphilis infection model, each animal was infected intradermally (ID) with 10^6 freshly harvested, viable and infectious T. pallidum cells (Chicago strain) per site of infection on 10 sites on their shaved backs to induce appearance of primary syphilis lesions. Treponemal viability prior to ID infection was assessed by dark field microscopy (DFM). A dose of infectious treponemes (10^6/site of infection) induces the appearance of an erythematous lesion at the inoculation site within ˜5 days post-inoculation. Overall, the arch of lesion progression from the erythematous stage to the indurated, ulcerated, and healed stages encompasses approximately 4 weeks.
Herein, three groups of three rabbits were infected. Three animals were treated orally with 70 mg/kg Lefamulin every 12 h for 3 days (day 7 to day 10 post-infection). As positive control group, another three animals were treated with Benzathine penicillin G (BPG) as single intramuscular (IM) injection (300,000 units; equivalent w/w to 4.8 million units for humans). One group (n=3) served as untreated control. The cutaneous lesions were monitored macroscopically for clinical development, documented by photography on regular basis and measured for their diameter every day for a period of 40 days.
Treponemal burden within these lesions was assessed by taking needle aspirates from the lesions and analyzing the aspirates for pathogen cell count using DFM as well as quantification of treponemal DNA extracted from the aspirates at day 3, 8, 12, and 16 Additionally, mRNA extracted from lesion biopsies obtained post-treatment initiation was also quantified as a surrogate of viability. The gene copy number of the T. pallidum tp0574 gene was quantified by qPCR. Additionally, the tp0574 gene message was normalized to the message of the rabbit housekeeping gene HPRT to evaluate the burden of viable T. pallidum cells within lesion biopsies.

T. pallidum = assay: Rabbit infectivity test (RIT) with popliteal lymph nodes; assay type: in vivo
Source text: The test rabbits from Example 3 were used for a subsequent study in a RIT, wherein samples from the popliteal lymph nodes were transferred to new (naïve) rabbits, which were subsequently analyzed for disease symptoms and tested serologically (Haynes, A. M., Giacani, L., Vall Mayans, M., et al. Efficacy of linezolid on Treponema pallidum, the syphilis agent: A preclinical study. eBioMedicine 65, 103281 (2021). Doi: 10.1016/j.ebiom.2021.103281).
Following euthanasia, popliteal lymph nodes (LN) from all the rabbits in the Lefamulin, BPG, and control groups were harvested. Lymph nodes from each rabbit were pooled and homogenized in a solution containing equal amounts of sterile saline and serum from an uninfected rabbit. One milliliter of homogenate from each test rabbit was then inoculated into the left testicle of a naïve rabbit to perform the RIT. For the rabbit, which died at day 3 post-treatment initiation, lymph nodes were harvested and transferred to a RIT rabbit within 1 hour after the animal's death.
Inoculated animals were checked for orchitis twice weekly. Serum was collected monthly for three months and analyzed with two different serological tests, i.e. VDRL (Venereal Disease Research Laboratory; Becton-Dickinson, Franklin Lanes, NJ) and TPPA (Treponema pallidum Particle Agglutination; Fujirebio, Malvern, PA). Also an FTA-ABS test (Fluorescent Treponemal Antibody-Absorption; Trinity Biotech, Jamestown, NY) was performed.

[3] = 192 h, stationary growth phase cultures, read after 8 days, read-out: MIC (μg/mL) for Stationary Growth Phase Culture (n = 6)
[4] = logarithmic growth phase cultures, read after 5 or 6 days, read-out: MIC (μg/mL) for Logarithmic Growth Phase Culture (n = 6)

SMILES: C=C[C@]1(C)C[C@@H](OC(=O)CS[C@@H]2CC[C@@H](N)C[C@H]2O)[C@]2(C)[C@H](C)CC[C@]3(CCC(=O)[C@H]32)[C@@H](C)[C@@H]1O [Lefamulin, 14-O-{[(1R, 2R, 4R)-4-amino-2-hydroxy-cyclohexylsulfanyl]-acetyl}-mutilin]
MIC (Borreliella spp.; [3]): 0.001 to 0.008 µg/mL (≈ 0.00197 to 0.0158 µM)
MIC (Borreliella spp.; [4]): 0.001 to 0.008 µg/mL (≈ 0.00197 to 0.0158 µM)
mean copy number of tp0574 gene ([1]; Chicago strain, at ≥10 ng/ml Lefamulin, day 7, untreated control 13,052 copies/μL): 324-403 copies/μL
MIC ([1]; Treponema pallidum, 168 h, T. pallidum Chicago strain, day 7, read-out: minimal inhibitory concentration (MIC)): ≥ 0.01 µg/mL
mean copy number of tp0574 gene (T. pallidum SS14 strain; SS14 strain, at ≥10 ng/mL Lefamulin, day 7, untreated control 894 copies/μL): 33-124 copies/μL
inhibiting Lefamulin concentration (T. pallidum SS14 strain; T. pallidum SS14 strain, inhibited at 10-20 ng/mL or higher): 10 to 20 ng/mL
death in treated group ([2]; 70 mg/kg orally every 12 h, day 3 of treatment, most likely inhalation of Lefamulin caused by reflux): one rabbit died
lesion progression past the initial state of mild induration ([2]; 40 days observation): None of the lesions in these two groups progressed past the initial state of mild induration
T. pallidum mRNA (tp0574 message normalized to HPRT) in lesion biopsies ([2]; day 3 post-treatment initiation): absent
lesions still measurable ([2]; day 9 post-treatment initiation): 14%
lesion diameter compared to the untreated controls ([2]; day 10 post-infection, end of treatment, p<0.05): significantly lower
day post-treatment initiation by which no induration could be measured at any site ([2]; post-treatment initiation): ≤ 13 days
T. pallidum cells in lesion aspirates by DFM ([2]; since day 3 post-treatment initiation): no treponemal bacteria could be found
orchitis or seroconversion (VDRL, TPPA) of RIT rabbits (T. pallidum; 3-months observation period, lymph nodes from treated test rabbits): None of the animals developed orchitis or seroconverted
seroconversion in FTA-ABS test (T. pallidum; RIT rabbits, control animals 3+ reactivity or higher): none of the BGP or Lefamulin treated animals seroconverted

SMILES: CC1(C)S[C@@H]2[C@H](NC(=O)Cc3ccccc3)C(=O)N2[C@H]1C(=O)O [penicillin G]
copy number of tp0574 gene ([1]; Chicago strain, penicillin G 60 ng/mL): 247 copies/μL
copy number of tp0574 gene (T. pallidum SS14 strain; SS14 strain, penicillin G 60 ng/mL): 91 copies/μL

SMILES: CO/N=C(\C(=O)N[C@@H]1C(=O)N2C(C(=O)O)=C(CSc3nc(=O)c(=O)[nH]n3C)CS[C@H]12)c1csc(N)n1 [Ceftriaxone]
MIC (Borreliella spp.; [3]): 0.004 to 0.03 µg/mL (≈ 0.00721 to 0.0541 µM)
MIC (Borreliella spp.; [4]): 0.004 to 0.016 µg/mL (≈ 0.00721 to 0.0289 µM)

Further lines, results first:

MIC (Borreliella spp.; [3]): 0.03 to 0.12 µg/mL (≈ 0.0821 to 0.328 µM)
MIC (Borreliella spp.; [4]): 0.03 to 0.12 µg/mL (≈ 0.0821 to 0.328 µM)
SMILES: CC1(C)S[C@@H]2[C@H](NC(=O)[C@H](N)c3ccc(O)cc3)C(=O)N2[C@H]1C(=O)O [Amoxicillin]

MIC (Borreliella spp.; [3]): 0.001 to 0.004 µg/mL (≈ 0.00136 to 0.00545 µM)
MIC (Borreliella spp.; [4]): 0.002 to 0.016 µg/mL (≈ 0.00273 to 0.0218 µM)
SMILES: CC[C@H]1OC(=O)[C@H](C)[C@@H](O[C@H]2C[C@@](C)(OC)[C@@H](O)[C@H](C)O2)[C@H](C)[C@@H](O[C@@H]2O[C@H](C)C[C@H](N(C)C)[C@H]2O)[C@](C)(O)C[C@@H](C)C(=O)[C@H](C)[C@@H](O)[C@]1(C)O [Erythromycin]

MIC (Borreliella spp.; [3]): 0.03 to 0.25 µg/mL (≈ 0.0608 to 0.506 µM)
MIC (Borreliella spp.; [4]): 0.03 to 0.5 µg/mL (≈ 0.0608 to 1.01 µM)
SMILES: C=C[C@]1(C)C[C@@H](OC(=O)CSCCN(CC)CC)[C@]2(C)[C@H](C)CC[C@]3(CCC(=O)[C@H]32)[C@@H](C)[C@@H]1O [Tiamulin]

— patent US20250134844A1, “THERAPEUTIC USE OF PLEUROMUTILINS” (Nabriva Therapeutics GmbH, priority 2022, published 2025)
